Source: the supplement of paper PMC5908809

How the values were obtained:
[1] = tested on: normal primary NK cells, pool 3 (3 donors) (IL-2 2.5 ng/mL); assay: drug sensitivity score (DSS) (DSS units); higher = more sensitive; extreme values may be limits of the assay; conditions: 72 h
SNK-6 (IL-2 2.5 ng/mL) [2] = assay: as above; conditions: 72 h
[3] = tested on: normal primary NK cells, pool 2 (3 donors) (IL-2 2.5 ng/mL); assay: as above; conditions: 72 h
NK-92 (IL-2 2.5 ng/mL) [4] = assay: as above; conditions: 72 h
DERL-7 (IL-2 2.5 ng/mL) [5] = assay: as above; conditions: 72 h
IMC-1 (IL-2 20 ng/mL) [6] = assay: as above; conditions: 72 h
NK-YS (IL-2 2.5 ng/mL) [7] = assay: as above; conditions: 72 h
NKL (IL-2 2.5 ng/mL) [8] = assay: as above; conditions: 72 h
[9] = tested on: normal primary NK cells, pool 1 (3 donors), resting (IL-2 0 ng/mL); assay: as above; conditions: 72 h
YT (IL-2 2.5 ng/mL) [10] = assay: as above; conditions: 72 h
[11] = tested on: normal primary NK cells, pool 1 (3 donors) (IL-2 2.5 ng/mL); assay: as above; conditions: 72 h
KAI3 (IL-2 2.5 ng/mL) [12] = assay: as above; conditions: 72 h
KHYG-1 (IL-2 2.5 ng/mL) [13] = assay: as above; conditions: 72 h
[14] = tested on: normal NK cells expanded with K562-aAPC; assay: percent inhibition of viability; higher = more inhibition; conditions: 72 h, IL-2 2.5 ng/mL
Experimental: (§1)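 Drug sensitivity and resistance testing on K562-aAPC-expanded normal NK cells: 5 concentrations (10-fold steps over a 10,000-fold range), 72 h at 37 °C, viability by CellTiter-Glo normalised to DMSO and benzethonium chloride controls; DSS from the fitted curve.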

[15] = tested on: normal NK cells expanded with K562-aAPC; assay: drug sensitivity score (DSS) (DSS units); higher = more sensitive; extreme values may be limits of the assay; conditions: 72 h; IL-2 2.5 ng/mL
Experimental: as §1

[16] = tested on: normal primary NK cells, pool 3 (3 donors) (IL-2 2.5 ng/mL); assay: percent inhibition of viability; higher = more inhibition; conditions: 72 h
SNK-6 (IL-2 2.5 ng/mL) [17] = assay: as above; conditions: 72 h
[18] = tested on: normal primary NK cells, pool 2 (3 donors) (IL-2 2.5 ng/mL); assay: as above; conditions: 72 h
NK-92 (IL-2 2.5 ng/mL) [19] = assay: as above; conditions: 72 h
DERL-7 (IL-2 2.5 ng/mL) [20] = assay: as above; conditions: 72 h
IMC-1 (IL-2 20 ng/mL) [21] = assay: as above; conditions: 72 h
NK-YS (IL-2 2.5 ng/mL) [22] = assay: as above; conditions: 72 h
NKL (IL-2 2.5 ng/mL) [23] = assay: as above; conditions: 72 h
[24] = tested on: normal primary NK cells, pool 1 (3 donors), resting (IL-2 0 ng/mL); assay: as above; conditions: 72 h
YT (IL-2 2.5 ng/mL) [25] = assay: as above; conditions: 72 h
[26] = tested on: normal primary NK cells, pool 1 (3 donors) (IL-2 2.5 ng/mL); assay: as above; conditions: 72 h
KAI3 (IL-2 2.5 ng/mL) [27] = assay: as above; conditions: 72 h
KHYG-1 (IL-2 2.5 ng/mL) [28] = assay: as above; conditions: 72 h

CC(C)(C)NC(=O)[C@H]1CC[C@H]2[C@@H]3CC[C@H]4NC(=O)C=C[C@]4(C)[C@H]3CC[C@]12C [Finasteride] (max concentration tested 10000 nM)
Conditions | drug sensitivity score
DERL-7 (IL-2 2.5 ng/mL) [5] | 0.06
IMC-1 (IL-2 20 ng/mL) [6] | 1.45
KAI3 (IL-2 2.5 ng/mL) [12] | 1.87
KHYG-1 (IL-2 2.5 ng/mL) [13] | 0.04
NK-92 (IL-2 2.5 ng/mL) [4] | 2.97
NK-YS (IL-2 2.5 ng/mL) [7] | 0.05
NKL (IL-2 2.5 ng/mL) [8] | 2.88
SNK-6 (IL-2 2.5 ng/mL) [2] | 0
YT (IL-2 2.5 ng/mL) [10] | 1.11
[1] | 0
[3] | 0.04
[9] | 0.89
[11] | 0
[15] | 0.32

percent inhibition of viability [%]
Conditions | 1 nM | 10 nM | 100 nM | 1000 nM | 10000 nM
DERL-7 (IL-2 2.5 ng/mL) [20] | 8.57 | -6.64 | 5.89 | -0.19 | 12.4
IMC-1 (IL-2 20 ng/mL) [21] | -6.06 | -4.68 | -1.34 | 2.37 | 27.1
KAI3 (IL-2 2.5 ng/mL) [27] | 2.67 | 5.19 | 10.5 | 4.13 | 28.6
KHYG-1 (IL-2 2.5 ng/mL) [28] | -6.44 | -5.37 | 3.63 | 2.04 | 10.9
NK-92 (IL-2 2.5 ng/mL) [19] | -2.71 | -10.9 | 0.46 | 4.24 | 44.5
NK-YS (IL-2 2.5 ng/mL) [22] | -10.4 | -1.41 | -5.34 | 5.54 | 10.5
NKL (IL-2 2.5 ng/mL) [23] | 5.94 | -9.09 | 10.7 | 13 | 34.2
SNK-6 (IL-2 2.5 ng/mL) [17] | -3.02 | -28.7 | -17.3 | -25.3 | -11.3
YT (IL-2 2.5 ng/mL) [25] | 4.41 | -7.13 | 5.2 | -3.12 | 30.2
[14] | -10.9 | -11.1 | -5.78 | 1.82 | 14.1
[16] | 1.72 | -0.73 | 15.2 | -6.78 | 1.67
[18] | -2.14 | -1.25 | 3.98 | -1.8 | 12.4
[24] | 1.92 | 14 | 3.85 | 6.98 | 20.4
[26] | -9.53 | 1.23 | 3.62 | -7.18 | 3.28

C[C@@H]1CN(CC(=O)Nc2ccc3c(c2)Cc2cccc(-c4cc(=O)cc(N5CCOCC5)o4)c2S3)C[C@H](C)O1 (max concentration tested 25000 nM)
Conditions | drug sensitivity score
DERL-7 (IL-2 2.5 ng/mL) [5] | 6.89
IMC-1 (IL-2 20 ng/mL) [6] | 5.86
KAI3 (IL-2 2.5 ng/mL) [12] | 7.81
KHYG-1 (IL-2 2.5 ng/mL) [13] | 8.65
NK-92 (IL-2 2.5 ng/mL) [4] | 8.57
NK-YS (IL-2 2.5 ng/mL) [7] | 6.02
NKL (IL-2 2.5 ng/mL) [8] | 7.43
SNK-6 (IL-2 2.5 ng/mL) [2] | 6.99
YT (IL-2 2.5 ng/mL) [10] | 6.69
[1] | 3.14
[3] | 5.1
[9] | 8.7
[11] | 6.71
[15] | 2.76

percent inhibition of viability [%]
Conditions | 2.5 nM | 25 nM | 250 nM | 2500 nM | 25000 nM
DERL-7 (IL-2 2.5 ng/mL) [20] | -2 | -3.36 | -4.44 | 13 | 85.2
IMC-1 (IL-2 20 ng/mL) [21] | -9.5 | -5.69 | -6.07 | 2.99 | 98.3
KAI3 (IL-2 2.5 ng/mL) [27] | 5.88 | 0.49 | -7.91 | 18.6 | 87.2
KHYG-1 (IL-2 2.5 ng/mL) [28] | -6.23 | -8.72 | -3.2 | 18.6 | 107
NK-92 (IL-2 2.5 ng/mL) [19] | -7.1 | -15.1 | -2.57 | 18.6 | 101
NK-YS (IL-2 2.5 ng/mL) [22] | -6.64 | -9 | -7.16 | 8.32 | 84.3
NKL (IL-2 2.5 ng/mL) [23] | -13.9 | -22.8 | -12.4 | 24.9 | 71
SNK-6 (IL-2 2.5 ng/mL) [17] | -10.7 | -10.4 | -8.37 | 9 | 100
YT (IL-2 2.5 ng/mL) [25] | -6.13 | -5.84 | -0.59 | 8.43 | 96.4
[14] | -9.26 | -9.66 | -11.6 | -3.45 | 56.6
[16] | -1.38 | 0.2 | 6.37 | -0.76 | 59.3
[18] | -2.96 | -5.92 | 1.66 | 7.62 | 69.8
[24] | 10.2 | 6.26 | 7.45 | 30.7 | 89
[26] | -8.95 | -10.4 | -7.4 | 10 | 91.3

N#CCNC(=O)c1ccc(-c2ccnc(Nc3ccc(N4CCOCC4)cc3)n2)cc1 [Momelotinib] (max concentration tested 10000 nM)
Conditions | drug sensitivity score
DERL-7 (IL-2 2.5 ng/mL) [5] | 16
IMC-1 (IL-2 20 ng/mL) [6] | 8.56
KAI3 (IL-2 2.5 ng/mL) [12] | 17.1
KHYG-1 (IL-2 2.5 ng/mL) [13] | 21.2
NK-92 (IL-2 2.5 ng/mL) [4] | 12.3
NK-YS (IL-2 2.5 ng/mL) [7] | 12.2
NKL (IL-2 2.5 ng/mL) [8] | 18.1
SNK-6 (IL-2 2.5 ng/mL) [2] | 11.5
YT (IL-2 2.5 ng/mL) [10] | 9.23
[1] | 10.2
[3] | 11.5
[9] | 1.97
[11] | 14.8
[15] | 15.6

percent inhibition of viability [%]
Conditions | 1 nM | 10 nM | 100 nM | 1000 nM | 10000 nM
DERL-7 (IL-2 2.5 ng/mL) [20] | 3.73 | 4.25 | 15.9 | 75.2 | 100
IMC-1 (IL-2 20 ng/mL) [21] | -3.83 | -4.31 | -6.56 | 18.6 | 101
KAI3 (IL-2 2.5 ng/mL) [27] | 5.39 | 5.27 | 21.2 | 79.2 | 85.8
KHYG-1 (IL-2 2.5 ng/mL) [28] | -1.96 | -4.26 | 19.9 | 103 | 102
NK-92 (IL-2 2.5 ng/mL) [19] | -4.89 | 7.75 | 12.7 | 57.3 | 73.3
NK-YS (IL-2 2.5 ng/mL) [22] | -3.04 | -5.27 | 11.4 | 54.4 | 98.9
NKL (IL-2 2.5 ng/mL) [23] | -4.28 | -2.44 | 28.4 | 79.3 | 88
SNK-6 (IL-2 2.5 ng/mL) [17] | 23.1 | 10.8 | 3.39 | 52.2 | 96
YT (IL-2 2.5 ng/mL) [25] | -0.29 | -0.45 | 5.77 | 38.1 | 86.3
[14] | -1.5 | 4.78 | 16.6 | 72 | 96.9
[16] | 0.52 | -6.13 | -0.97 | 43.2 | 86.9
[18] | -6.15 | -4.46 | 2.38 | 54.3 | 91.2
[24] | -6.11 | -14.1 | 3.47 | 15.8 | 14.3
[26] | -14.4 | -4.36 | 20.3 | 65.5 | 70.3

CC1(COc2ccc3c(c2)ncn3-c2ccc3cccc(N4CCC(N)CC4)c3n2)COC1 [Crenolanib] (max concentration tested 10000 nM)
Conditions | drug sensitivity score
DERL-7 (IL-2 2.5 ng/mL) [5] | 11.6
IMC-1 (IL-2 20 ng/mL) [6] | 6.39
KAI3 (IL-2 2.5 ng/mL) [12] | 7.36
KHYG-1 (IL-2 2.5 ng/mL) [13] | 8.48
NK-92 (IL-2 2.5 ng/mL) [4] | 11.7
NK-YS (IL-2 2.5 ng/mL) [7] | 8.29
NKL (IL-2 2.5 ng/mL) [8] | 13.3
SNK-6 (IL-2 2.5 ng/mL) [2] | 15.2
YT (IL-2 2.5 ng/mL) [10] | 9.15
[1] | 9.06
[3] | 10.1
[9] | 4.78
[11] | 9.05
[15] | 10.6

percent inhibition of viability [%]
Conditions | 1 nM | 10 nM | 100 nM | 1000 nM | 10000 nM
DERL-7 (IL-2 2.5 ng/mL) [20] | 9.4 | 0.68 | 2.82 | 50.6 | 101
IMC-1 (IL-2 20 ng/mL) [21] | -5.33 | 1.06 | 0.71 | 5.26 | 101
KAI3 (IL-2 2.5 ng/mL) [27] | -3.85 | -6.78 | -18.2 | 10.7 | 102
KHYG-1 (IL-2 2.5 ng/mL) [28] | 2.86 | -0.81 | 5.22 | 18.1 | 99.8
NK-92 (IL-2 2.5 ng/mL) [19] | -3.46 | -7.66 | 2.06 | 50.1 | 102
NK-YS (IL-2 2.5 ng/mL) [22] | -3.61 | -4.32 | -1.2 | 16.6 | 101
NKL (IL-2 2.5 ng/mL) [23] | 12.4 | 0.04 | 22.6 | 53 | 103
SNK-6 (IL-2 2.5 ng/mL) [17] | 21.7 | 16.3 | 25 | 54.8 | 101
YT (IL-2 2.5 ng/mL) [25] | 4.17 | 1.51 | 11.1 | 24.2 | 99.7
[14] | -3.71 | -1.22 | -0.36 | 37.5 | 101
[16] | -13.7 | -6.99 | 10.3 | 22.4 | 100
[18] | -14.1 | -6.62 | 2.71 | 32 | 99.4
[24] | -7.18 | -27.8 | -5.86 | -10.3 | 98.2
[26] | 2.4 | -5.93 | -3.03 | 22.4 | 100
